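96-well plates; 48 h exposure; 5 concentrations. Endpoints by linear interpolation between flanking doses. Not reached: highest tested concentration assigned. GI50 marks 50% less growth.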 Activity calls are given as the source filed them. No stated cut-off is given here; in the data, active = GI50 up to about 1.1 µM and inactive = higher.
Columns and labels:
Experiment in all cases: NCI anticancer screen, dose series, 48 h
PC-3 = tested on: PC-3
TK-10 = tested on: TK-10
NCI-H226 = tested on: NCI-H226
SW-620 = tested on: SW-620
OVCAR-8 = tested on: OVCAR-8
XF498 = tested on: XF498
MDA-MB-231 = tested on: MDA-MB-231
MDA-N = tested on: MDA-N
HOP-62 = tested on: HOP-62
NCI/ADR-RES = tested on: NCI/ADR-RES
DMS-114 = tested on: DMS-114
HT-29 = tested on: HT-29
SR = tested on: SR
CCRF-CEM = tested on: CCRF-CEM
HL-60 = tested on: HL-60
NCI-H522 = tested on: NCI-H522
KM12 = tested on: KM12
LXFL 529 = tested on: LXFL 529
ACHN = tested on: ACHN
DMS-273 = tested on: DMS-273
OVCAR-3 = tested on: OVCAR-3
U-251 = tested on: U-251
A498 = tested on: A498
CAKI-1 = tested on: CAKI-1
DLD-1 = tested on: DLD-1
UO-31 = tested on: UO-31
M14 = tested on: M14
SF-539 = tested on: SF-539
HCT-15 = tested on: HCT-15
IGROV-1 = tested on: IGROV-1
OVCAR-5 = tested on: OVCAR-5
SK-MEL-28 = tested on: SK-MEL-28
EKVX = tested on: EKVX
Malme-3M = tested on: Malme-3M
NCI-H460 = tested on: NCI-H460
RXF 393 = tested on: RXF 393
SN12C = tested on: SN12C
MCF7 = tested on: MCF7
HOP-92 = tested on: HOP-92
K562 = tested on: K562
SNB-19 = tested on: SNB-19
A549 = tested on: A549
BT-549 = tested on: BT-549
LOX IMVI = tested on: LOX IMVI
SF-268 = tested on: SF-268
Hs-578T = tested on: Hs-578T
OVCAR-4 = tested on: OVCAR-4
SK-OV-3 = tested on: SK-OV-3
MDA-MB-435 = tested on: MDA-MB-435
COLO 205 = tested on: COLO 205
SNB-78 = tested on: SNB-78
NCI-H23 = tested on: NCI-H23
M19-MEL = tested on: M19-MEL
RPMI-8226 = tested on: RPMI-8226
HCC 2998 = tested on: HCC 2998
DU-145 = tested on: DU-145
UACC-257 = tested on: UACC-257
SF-295 = tested on: SF-295
MOLT-4 = tested on: MOLT-4
T47D = tested on: T47D
SK-MEL-2 = tested on: SK-MEL-2
UACC-62 = tested on: UACC-62
SNB-75 = tested on: SNB-75
HCT-116 = tested on: HCT-116
SK-MEL-5 = tested on: SK-MEL-5
KM-20L2 = tested on: KM-20L2
786-0 = tested on: 786-0

With `CS(=O)(=O)C(C#N)c1nc2ccccc2nc1Cl` (centres undefined) the GI50 (PC-3) was > 100 µM (inactive), the GI50 (TK-10) was > 32.6 µM (inactive) and the GI50 (NCI-H226) was > 100 µM (inactive). For the same molecule, the GI50 (SW-620) was > 100 µM (inactive), the GI50 (OVCAR-8) was > 19.5 µM (inactive) and the GI50 (XF498) was > 100 µM (inactive). For the same molecule, the GI50 (MDA-MB-231) was > 100 µM (inactive), the GI50 (MDA-N) was > 100 µM (inactive) and the GI50 (HOP-62) was > 100 µM (inactive). The GI50 (NCI/ADR-RES) was > 36.5 µM (inactive), the GI50 (DMS-114) was > 100 µM (inactive) and the GI50 (HT-29) was > 100 µM (inactive). The GI50 (SR) was > 100 µM (inactive), the GI50 (CCRF-CEM) was > 94 µM (inactive) and the GI50 (HL-60) was > 100 µM (inactive). For the same molecule, the GI50 (NCI-H522) was > 53.7 µM (inactive), the GI50 (KM12) was > 34.4 µM (inactive) and the GI50 (LXFL 529) was > 100 µM (inactive). For the same molecule, the GI50 (ACHN) was > 100 µM (inactive), the GI50 (DMS-273) was > 100 µM (inactive) and the GI50 (OVCAR-3) was > 72.1 µM (inactive). For the same molecule, the GI50 (U-251) was > 100 µM (inactive), the GI50 (A498) was > 28.1 µM (inactive) and the GI50 (CAKI-1) was > 66.5 µM (inactive). The GI50 (DLD-1) was 4.18 µM (inactive), the GI50 (UO-31) was > 100 µM (inactive) and the GI50 (M14) was > 100 µM (inactive). For the same molecule, the GI50 (SF-539) was > 28.5 µM (inactive), the GI50 (HCT-15) was over 35.2 µM and the GI50 (IGROV-1) was > 66.5 µM (inactive). The GI50 (OVCAR-5) was > 39.9 µM (inactive), the GI50 (SK-MEL-28) was > 100 µM (inactive) and the GI50 (EKVX) was > 100 µM (inactive). For the same molecule, the GI50 (Malme-3M) was > 100 µM (inactive), the GI50 (NCI-H460) was > 30.5 µM (inactive) and the GI50 (RXF 393) was > 100 µM (inactive). The GI50 (SN12C) was > 100 µM (inactive), the GI50 (MCF7) was > 100 µM (inactive) and the GI50 (HOP-92) was > 100 µM (inactive). The GI50 (K562) was > 100 µM (inactive), the GI50 (SNB-19) was > 100 µM (inactive) and the GI50 (A549) was > 100 µM (inactive). For the same molecule, the GI50 (BT-549) was > 100 µM (inactive), the GI50 (LOX IMVI) was > 100 µM (inactive) and the GI50 (SF-268) was > 74 µM (inactive). The GI50 (Hs-578T) was 70.6 µM (inactive), the GI50 (OVCAR-4) was > 73.5 µM (inactive) and the GI50 (SK-OV-3) was > 100 µM (inactive). The GI50 (MDA-MB-435) was > 100 µM (inactive), the GI50 (COLO 205) was > 100 µM (inactive) and the GI50 (SNB-78) was > 100 µM (inactive). The GI50 (NCI-H23) was > 100 µM (inactive), the GI50 (M19-MEL) was 5.68 µM (inactive) and the GI50 (RPMI-8226) was > 100 µM (inactive). The GI50 (HCC 2998) was > 32.2 µM (inactive), the GI50 (DU-145) was > 100 µM (inactive) and the GI50 (UACC-257) was > 73.3 µM (inactive). The GI50 (SF-295) was > 100 µM (inactive), the GI50 (MOLT-4) was > 100 µM (inactive) and the GI50 (T47D) was > 100 µM (inactive). The GI50 (SK-MEL-2) was > 22.4 µM (inactive), the GI50 (UACC-62) was > 100 µM (inactive) and the GI50 (SNB-75) was > 100 µM (inactive). The GI50 (HCT-116) was > 100 µM (inactive).

With `N#Cc1ccc(Nc2cnc3ccc(N)cc3n2)cc1` the GI50 (TK-10) was > 100 µM (inactive), the GI50 (NCI-H226) was > 100 µM (inactive) and the GI50 (SW-620) was > 100 µM (inactive). For the same molecule, the GI50 (OVCAR-8) was > 100 µM (inactive), the GI50 (XF498) was > 100 µM (inactive) and the GI50 (SK-MEL-5) was > 100 µM (inactive). For the same molecule, the GI50 (HOP-62) was > 100 µM (inactive), the GI50 (DMS-114) was > 100 µM (inactive) and the GI50 (HT-29) was > 100 µM (inactive). For the same molecule, the GI50 (SR) was 91.4 µM (inactive), the GI50 (CCRF-CEM) was > 100 µM (inactive) and the GI50 (KM-20L2) was > 100 µM (inactive). For the same molecule, the GI50 (HL-60) was > 100 µM (inactive), the GI50 (NCI-H522) was > 100 µM (inactive) and the GI50 (KM12) was > 100 µM (inactive). The GI50 (LXFL 529) was > 100 µM (inactive), the GI50 (ACHN) was > 100 µM (inactive) and the GI50 (DMS-273) was > 100 µM (inactive). The GI50 (OVCAR-3) was > 100 µM (inactive), the GI50 (U-251) was > 100 µM (inactive) and the GI50 (CAKI-1) was > 100 µM (inactive). For the same molecule, the GI50 (DLD-1) was > 100 µM (inactive), the GI50 (UO-31) was > 100 µM (inactive) and the GI50 (M14) was > 100 µM (inactive). The GI50 (786-0) was > 100 µM (inactive), the GI50 (SF-539) was > 100 µM (inactive) and the GI50 (HCT-15) was over 100 µM. For the same molecule, the GI50 (OVCAR-5) was > 100 µM (inactive), the GI50 (SK-MEL-28) was > 100 µM (inactive) and the GI50 (EKVX) was > 100 µM (inactive). The GI50 (Malme-3M) was > 100 µM (inactive), the GI50 (NCI-H460) was > 100 µM (inactive) and the GI50 (RXF 393) was > 100 µM (inactive). The GI50 (SN12C) was > 100 µM (inactive), the GI50 (HOP-92) was > 100 µM (inactive) and the GI50 (K562) was > 100 µM (inactive). For the same molecule, the GI50 (SNB-19) was > 100 µM (inactive), the GI50 (A549) was > 100 µM (inactive) and the GI50 (LOX IMVI) was > 100 µM (inactive). For the same molecule, the GI50 (SF-268) was > 100 µM (inactive), the GI50 (OVCAR-4) was > 100 µM (inactive) and the GI50 (SK-OV-3) was > 100 µM (inactive). The GI50 (COLO 205) was > 100 µM (inactive), the GI50 (SNB-78) was > 100 µM (inactive) and the GI50 (NCI-H23) was > 100 µM (inactive). For the same molecule, the GI50 (M19-MEL) was > 100 µM (inactive), the GI50 (RPMI-8226) was > 100 µM (inactive) and the GI50 (HCC 2998) was > 100 µM (inactive). The GI50 (UACC-257) was > 100 µM (inactive), the GI50 (SF-295) was > 100 µM (inactive) and the GI50 (MOLT-4) was > 100 µM (inactive). The GI50 (SK-MEL-2) was > 100 µM (inactive), the GI50 (UACC-62) was > 100 µM (inactive) and the GI50 (SNB-75) was > 100 µM (inactive). The GI50 (HCT-116) was > 100 µM (inactive).

From ChEMBL document CHEMBL1201862, “PubChem BioAssay data set” (2004)
